The target of one test is T1, BRD4 (BDI_K57-E168) (Homo sapiens, UniProt O60885).
T1 construct: BD1: amino acids K57-E168; made in house
Nature of the test: TR-FRET bromodomain binding assay, first bromodomain of BRD4. The following applies: 100 nM probe. As for the experimental part:
(§1) Bromodomain Domain Binding Assay
(§2) A time-resolved fluorescence resonance energy transfer (TR-FRET) assay was used to determine the affinities of compounds of the Examples listed in Table 1 for each bromodomain of BRD4. His-tagged first (BD1: amino acids K57-E168) and second (BD2: amino acids […]) bromodomains of BRD4 were expressed and purified. An Alexa647-labeled BET-inhibitor was used as the fluorescent probe in the assay.
(§3) Compound dilution series were prepared in DMSO via an approximately 3-fold serial dilution from one of the following: […]
(§4) Assay method E: 0.47 mM to 7.8 nM […]
(§5) Assay method G: 0.047 mM to 0.78 nM
(§6) or 5-fold serial dilution from one of the following: […]
(§7) Assay method B: 2.5 mM-797 nM […]
(§8) For Assay methods B, E, and G: Compound dilutions were added directly into white, low-volume assay plates (Perkin Elmer Proxiplate 384 Plus#6008280) using a Labcyte Echo in conjunction with Labcyte Access and Thermo Multidrop CombinL robotics. Compounds were then suspended in eight microliters (μL) of assay buffer (20 mM Sodium Phosphate, pH 6.0, 50 mM NaCl, 1 mM Ethylenediaminetetraacetic acid disodium salt dihydrate, 0.01% Triton X-100, 1 mM DL-Dithiothreitol) containing His-tagged bromodomain, Europium-conjugated anti-His antibody (Invitrogen PV5596) and Alexa-647-conjugated probe.
(§9) The final concentration of 1× assay mixture for assay methods A, B, C, D, E, F, and G contains 2% DMSO, 8 nM His-tagged bromodomain, 1 nM Europium-conjugated anti-His-tag antibody and 100 nM or 30 nM probe (for BDI or BDII, respectively) and compound concentration in the range of: 50 μM-16 nM for method A, 49.02 μM-15.63 nM for method B, 25 μM-423 pM for method C, 10 μM-169 pM for method D, 9.19 μM-150 pM for method E, 5 μM-85 pM for method F, and 0.92 μM-15 pM for method G.
(§10) After a one-hour equilibration at room temperature, TR-FRET ratios were determined using an Envision multilabel plate reader (Ex 340, Em 495/520).
(§11) TR-FRET data were normalized to the means of 24 no-compound controls (“high”) and 8 controls containing 1 μM un-labeled probe (“low”). Percent inhibition was plotted as a function of compound concentration and the data were fit with the 4 parameter logistic equation to obtain IC50s. Inhibition constants (Ki) were calculated from the IC50s, probe Kd and probe concentration. Typical Z′ values were between 0.65 and 0.75. The minimum significant ratio was determined to evaluate assay reproducibility (Eastwood et al., (2006) J Biomol Screen, 11: 253-261). The MSR was determined to be 2.03 for BDI and 1.93 for BDII, and a moving MSR (last six run MSR overtime) for both BDI and BDII was typically <3.

The next test addresses T2, BRD4 (BDII_E352-M457) (Homo sapiens, UniProt O60885).
T2 construct: protocol; made in house
Nature of the test: TR-FRET bromodomain binding assay, second bromodomain of BRD4. The following applies: 30 nM probe. On the procedure:
as §1, §2, §3, §4, §5, §6, §7, §8, §9, §10, §11

The mark [1] stands for this setting: TR-FRET assay protocol G (compound 0.92 μM-15 pM).
The mark [2] stands for this setting: TR-FRET assay protocol E (compound 9.19 μM-150 pM).

On to `COC(=O)CCC1c2c[nH]c3c(=O)n(C)cc(c23)-c2cc(CS(C)(=O)=O)ccc2N1c1ccc(F)cc1F` [Example 268, (R)-methyl 3-(4-(2,4-difluorophenyl)-10-methyl-7-((methylsulfonyl)methyl)-11-oxo-3,4,10,11-tetrahydro-1H-1,4,10-triazadibenzo[cd,f]azulen-3-yl)propanoate], for which the Ki at BRD4 (BDI_K57-E168) (setting [1]) came out at 82.8 nM; on BRD4 (BDII_E352-M457) (setting [1]) it was 16.4 nM.

`Cn1cc2c3c(c[nH]c3c1=O)CNc1ccc(CS(C)(=O)=O)cc1-2` [Example 5, 10-methyl-7-((methylsulfonyl)methyl)-3,4-dihydro-1H-1,4,10-triazadibenzo[cd,f]azulen-11(10H)-one]: the Ki at BRD4 (BDI_K57-E168) (setting [2]) came out at 765 nM; on BRD4 (BDII_E352-M457) (setting [2]), 758 nM.

On to `CCCCCOC(=O)N1Cc2c[nH]c3c(=O)n(C)cc(c23)-c2cc(CS(C)(=O)=O)ccc21` [Example 88, pentyl 10-methyl-7-((methylsulfonyl)methyl)-11-oxo-10,11-dihydro-1H-1,4,10-triazadibenzo[cd,f]azulene-4(3H)-carboxylate], for which the figures for the Ki at BRD4 (BDI_K57-E168) (setting [1]) and at BRD4 (BDII_E352-M457) (setting [1]) were 3.46 nM and 1.76 nM, respectively.

For `CC(C1CCOCC1)N1Cc2c[nH]c3c(=O)n(C)cc(c23)-c2cc(CS(C)(=O)=O)ccc21` (racemic) [Example 188, 10-methyl-7-((methylsulfonyl)methyl)-4-(1-(tetrahydro-2H-pyran-4-yl)ethyl)-3,4-dihydro-1H-1,4,10-triazadibenzo[cd,f]azulen-11(10H)-one], the Ki was found to be 3.64 nM at BRD4 (BDI_K57-E168) (setting [1]) and 4.62 nM at BRD4 (BDII_E352-M457) (setting [1]).

Regarding `COCCC(=O)N1Cc2c[nH]c3c(=O)n(C)cc(c23)-c2cc(CS(C)(=O)=O)ccc21` [Example 101, 4-(3-methoxypropanoyl)-10-methyl-7-((methylsulfonyl)methyl)-3,4-dihydro-1H-1,4,10-triazadibenzo[cd,f]azulen-11(10H)-one], the Ki at BRD4 (BDI_K57-E168) (setting [1]) turned out to be 4.83 nM; at BRD4 (BDII_E352-M457) (setting [1]), 2.77 nM.

In the case of `CC(C)C(=O)N1Cc2c[nH]c3c(=O)n(C)cc(c23)-c2cc(CS(C)(=O)=O)ccc21` [Example 54, 4-isobutyryl-10-methyl-7-((methylsulfonyl)methyl)-3,4-dihydro-1H-1,4,10-triazadibenzo[cd,f]azulen-11(10H)-one], the Ki at BRD4 (BDI_K57-E168) (setting [1]) worked out at 5.85 nM; on BRD4 (BDII_E352-M457) (setting [1]) it was 1.45 nM.

Take `Cn1cc2c3c(c[nH]c3c1=O)CNc1ccc(S(C)(=O)=O)cc1-2` [Example 4, 10-methyl-7-(methylsulfonyl)-3,4-dihydro-1H-1,4,10-triazadibenzo[cd,f]azulen-11(10H)-one]: the inhibitory constant (Ki) on BRD4 (BDI_K57-E168) (setting [2]) was 2000 nM; on BRD4 (BDII_E352-M457) (setting [2]), 3090 nM.

On to `COc1ccc(S(=O)(=O)N2Cc3c[nH]c4c(=O)n(C)cc(c34)-c3cc(CS(C)(=O)=O)ccc32)cc1` [Example 76, 4-((4-methoxyphenyl)sulfonyl)-10-methyl-7-((methylsulfonyl)methyl)-3,4-dihydro-1H-1,4,10-triazadibenzo[cd,f]azulen-11(10H)-one], for which the results for the Ki on BRD4 (BDI_K57-E168) (setting [1]) and at BRD4 (BDII_E352-M457) (setting [1]) were greater than 238 nM and greater than 408 nM, respectively.

With `CCOCCC(C)N1Cc2c[nH]c3c(=O)n(C)cc(c23)-c2cc(CS(C)(=O)=O)ccc21` (racemic) [Example 153, 4-(4-ethoxybutan-2-yl)-10-methyl-7-((methylsulfonyl)methyl)-3,4-dihydro-1H-1,4,10-triazadibenzo[cd,f]azulen-11(10H)-one], the Ki came out at 3.72 nM at BRD4 (BDI_K57-E168) (setting [1]) and 9.18 nM on BRD4 (BDII_E352-M457) (setting [1]).

As to `COCCC(C)N1Cc2c[nH]c3c(=O)n(C)cc(c23)-c2cc(CS(C)(=O)=O)ccc21` (racemic) [Example 186, 4-(4-methoxybutan-2-yl)-10-methyl-7-((methylsulfonyl)methyl)-3,4-dihydro-1H-1,4,10-triazadibenzo[cd,f]azulen-11(10H)-one], the Ki turned out to be 4.21 nM at BRD4 (BDI_K57-E168) (setting [1]) and 9.2 nM on BRD4 (BDII_E352-M457) (setting [1]).

For the compound `Cn1cc2c3c(c[nH]c3c1=O)CN(C(=O)OCC(C)(C)C)c1ccc(CS(C)(=O)=O)cc1-2` [Example 92, neopentyl 10-methyl-7-((methylsulfonyl)methyl)-11-oxo-10,11-dihydro-1H-1,4,10-triazadibenzo[cd,f]azulene-4(3H)-carboxylate], the Ki at BRD4 (BDI_K57-E168) (setting [1]) is 3.74 nM; at BRD4 (BDII_E352-M457) (setting [1]), 5.58 nM.

Consider `Cn1cc2c3c(c[nH]c3c1=O)CN(C(=O)OCCCCCl)c1ccc(CS(C)(=O)=O)cc1-2` [Example 89, 4-chlorobutyl 10-methyl-7-((methylsulfonyl)methyl)-11-oxo-10,11-dihydro-1H-1,4,10-triazadibenzo[cd,f]azulene-4(3H)-carboxylate], for which the figures for the inhibitory constant (Ki) on BRD4 (BDI_K57-E168) (setting [1]) and on BRD4 (BDII_E352-M457) (setting [1]) were 5.77 nM and 4.53 nM, respectively.

As to `CN1CCCC(N2Cc3c[nH]c4c(=O)n(C)cc(c34)-c3cc(CS(C)(=O)=O)ccc32)CC1` (stereo not drawn) [Example 189], the Ki on BRD4 (BDI_K57-E168) (setting [1]) is 5.82 nM; on BRD4 (BDII_E352-M457) (setting [1]) it was 22.3 nM.

For the compound `Cn1cc2c3c(c[nH]c3c1=O)CN(C1CCC(N)CC1)c1ccc(S(C)(=O)=O)cc1-2` (stereo not drawn) [Example 171, 4-((trans)-4-aminocyclohexyl)-10-methyl-7-(methylsulfonyl)-3,4-dihydro-1H-1,4,10-triazadibenzo[cd,f]azulen-11(10H)-one], the Ki on BRD4 (BDI_K57-E168) (setting [1]) turned out to be 16.4 nM; on BRD4 (BDII_E352-M457) (setting [1]) it was 29.2 nM.

Consider `Cn1cc2c3c(c[nH]c3c1=O)CN(c1ccc(F)cc1F)c1ncncc1-2` [Example 83, 4-(2,4-difluorophenyl)-10-methyl-3,4-dihydro-1H-1,4,5,7,10-pentaazadibenzo[cd,f]azulen-11(10H)-one], for which the inhibition constant (Ki) was greater than 238 nM on BRD4 (BDI_K57-E168) (setting [1]) and greater than 408 nM on BRD4 (BDII_E352-M457) (setting [1]).

As for `COc1ccc(C(=O)N2Cc3c[nH]c4c(=O)n(C)cc(c34)-c3cc(CS(C)(=O)=O)ccc32)cc1` [Example 110, 4-(4-methoxybenzoyl)-10-methyl-7-((methylsulfonyl)methyl)-3,4-dihydro-1H-1,4,10-triazadibenzo[cd,f]azulen-11(10H)-one], the Ki on BRD4 (BDI_K57-E168) (setting [1]) stood at 41.7 nM; at BRD4 (BDII_E352-M457) (setting [1]), 19.9 nM.

Regarding `CN(C)C(NCC1c2c[nH]c3c(=O)n(C)cc(c23)-c2cc(CS(C)(=O)=O)ccc2N1c1ccc(F)cc1F)=[N+](C)C` (stereo not drawn) [Example 130, N-((((4-(2,4-difluorophenyl)-10-methyl-7-((methylsulfonyl)methyl)-11-oxo-3,4,10,11-tetrahydro-1H-1,4,10-triazadibenzo[cd,f]azulen-3-yl)methyl)amino)(dimethylamino)methylene)-N-methylmethanaminium], the Ki on BRD4 (BDI_K57-E168) (setting [1]) stood at 215 nM; at BRD4 (BDII_E352-M457) (setting [1]), 14.6 nM.

With `Cn1cc(-c2[nH]c3c(=O)n(C)cc4c3c2CN(c2ccc(F)cc2)c2ccc(CS(C)(=O)=O)cc2-4)cn1` [Example 276, 4-(4-fluorophenyl)-10-methyl-2-(1-methyl-1H-pyrazol-4-yl)-7-((methylsulfonyl)methyl)-3,4-dihydro-1H-1,4,10-triazadibenzo[cd,f]azulen-11(10H)-one], the inhibitory constant (Ki) worked out at 1.19 nM on BRD4 (BDI_K57-E168) (setting [1]) and 1.18 nM on BRD4 (BDII_E352-M457) (setting [1]).

For `Cn1cc2c3c(c[nH]c3c1=O)C(Cn1ccccc1=O)N(c1ccc(F)cc1F)c1ccc(CS(C)(=O)=O)cc1-2` (single isomer, unassigned) [Example 251], the inhibition constant Ki at BRD4 (BDI_K57-E168) (setting [1]) is greater than 238 nM; on BRD4 (BDII_E352-M457) (setting [1]), 142 nM.

On to `Cn1cc2c3c(c[nH]c3c1=O)CN(S(=O)(=O)c1ccccc1)c1ccc(CS(C)(=O)=O)cc1-2` [Example 77, 10-methyl-7-((methylsulfonyl)methyl)-4-(phenylsulfonyl)-3,4-dihydro-1H-1,4,10-triazadibenzo[cd,f]azulen-11(10H)-one], for which the inhibition constant (Ki) on BRD4 (BDI_K57-E168) (setting [1]) was greater than 238 nM; on BRD4 (BDII_E352-M457) (setting [1]), 275 nM.

Regarding `Cn1cc2c3c(c[nH]c3c1=O)CN(C(=O)c1ccccc1F)c1ccc(CS(C)(=O)=O)cc1-2` [Example 113, 4-(2-fluorobenzoyl)-10-methyl-7-((methylsulfonyl)methyl)-3,4-dihydro-1H-1,4,10-triazadibenzo[cd,f]azulen-11(10H)-one], the values for the Ki at BRD4 (BDI_K57-E168) (setting [1]) and on BRD4 (BDII_E352-M457) (setting [1]) were 85.6 nM and 10.9 nM, respectively.

As a reminder, the Ki is the dissociation constant of the complex between target and ligand, obtained from inhibition or displacement. Low values mean higher affinity, high ones lower affinity.

The record behind these values is patent publication US10035800B2 (AbbVie Inc., priority 2013, dated 2018).
